Test results taken from patent US5705662A, “17-(3-imino-2-alkylpropenyl)-5β, 14β-androstane derivatives active on the cardiovascular system, processes for their preparation and pharmaceutical compositions containing same” (Sigma-Tau Industrie Farmaceutiche Riunite S.p.A., priority 1994, dated 1998).

Columns and labels:
[1] = J. Med. Chem. 1978, 21, 284; Quant. Struct.-Act. Relat. 1988, 7, 160; cited from earlier work
Na^+,K^+ -ATPase [2] = conditions: J. Med. Chem. 1978, 21, 284; Quant. Struct.-Act. Relat. 1988, 7, 160; DE 4,227,605; DE 4,227,626; cited from earlier work
Na^+,K^+ -ATPase [3] = biological target: T1, Na^+,K^+ -ATPase (Canis lupus familiaris, UniProt P50997); experiment: inhibition of the activity of the purified Na+,K+-ATPase (% hydrolysis of 32P-ATP); format: biochemical; conditions: purified Na+,K+-ATPase, 32P-ATP hydrolysis; read-out: Inhibitory Activity log IC50 (converted)
T1 construct: Na^+,K^+ -ATPase receptor purified according to Jorghensen; from tissue
Description: (§1) To test the affinity for the receptor site of the Na^+,K^+ -ATPase and the agonist or antagonist activity on the enzyme, the following tests were used:
b) inhibition of the activity of the purified Na^+,K^+ -ATPase measured as % of hydrolysis of ^32 P-ATP in presence and in absence of the tested compound (Doucet A. et al. Am. J. Physiol., 1986, 251, F851)

[4] = tested on: spontaneous hypertensive rats (MHS); experiment: effect of 5 week-treatment on the development of hypertension in MHS rats (SBP and HR, tail cuff method); format: in vivo, rat (MHS); conditions: 10 mg/Kg/os daily in Methocel 0.5% w/v, 5 weeks, controls 171 +/- 4.5
Procedure: (§2) Systolic blood pressure (SBP) and heart rate (HR) were measured. by the tail cuff method, in young prehypertensive male rats (MHS or SHR) strains before the development of hypertension (4 weeks of age) for recording the basal values of SBP. Groups of 7 rats were formed and subdivided in control and treated groups. The compound, suspended in Methocel 0.5 % (w/v). was orally given daily for at least 5 weeks to the treated groups. The control group received only Methocel.
(§3) SBP and HR were measured weekly 6 and 24 hrs after treatment. After 5 weeks of treatment, when hypertension was fully developed in the control group (9 weeks of age), washout was started for at least one week, to verify whether the treatment maintained blood pressure low or reestablished the basal values. […] (Takeda K. et al., Japan J. Pharmacol., 1979, 29,171: Takeda K. et al. Japan J. Pharmacol., 1982, 32, 283; Richer C. et al. Eur. J. Pharmacol, 1978, 47,393).

[5] = as above; format: in vivo, rat (MHS); conditions: 10 mg/Kg/os daily in Methocel 0.5% w/v, 5 weeks, controls 375 +/- 7.3
Procedure: as §2, §3

Na^+,K^+ -ATPase [6] = biological target: T1, Na^+,K^+ -ATPase; experiment: displacement of the specific 3H-ouabain binding from the purified Na+,K+-ATPase receptor; conditions: 3H-ouabain displacement, purified Na+,K+-ATPase; read-out: Binding ^3 H-Ouab. Displacement log IC50 (converted)
Description: as §1
a) displacement of the specific ^3 H-ouabain binding from the Na^+,K^+ -ATPase receptor purified according to Jorghensen (Jorghensen P., BBA. 1974, 356, 36) and Erdmann (Erdmann E. et al., Arzneim. Forsh., 1984, 34, 1314);

Row | Compound | positive inotropic activity (in words) [1] | inhibition of Na+,K+-ATPase (in words) (Na^+,K^+ -ATPase [2]) | IC50 (Na^+,K^+ -ATPase [3]) [nM] | SBP [4] | HR [5] | IC50 (Na^+,K^+ -ATPase [6]) [nM]
1 | C[C@]12CC[C@H](O)C[C@H]1CC[C@@H]1[C@@H]2CC[C@]2(C)[C@@H](C=NNC(=N)N)CC[C@]12O [17β-guanidinoiminomethyl-5β-androstane-3β,14β-diol] | weak positive inotropic agents | weak inhibitors of Na^+,K^+ -ATPase |  |  |  | 
2 | CC(/C=N/NC(=N)N)=C\[C@H]1CC[C@]2(O)[C@@H]3CC[C@@H]4C[C@@H](O)CC[C@]4(C)[C@H]3CC[C@]12C [Comp. I-aa, (E,E)-17β-(3-Guanidinoimino-2-methyl-1-propenyl)-5β-androstane-3β,14β-diol] |  |  | 251 | 148 +/- 5.7 mm Hg | 374 +/- 9.5 beats/min. | 31.6
3 | CC(/C=N/OCCN)=C\[C@H]1CC[C@]2(O)[C@@H]3CC[C@@H]4C[C@@H](O)CC[C@]4(C)[C@H]3CC[C@]12C [Comp. I-af, (E,E)-17β-[3-(2-Aminoethoxyimino)-2-methyl-1-propenyl]-5β-androstone-3β,14β-diol] |  |  | 31.6 | 146 +/- 6.1 mm Hg | 380 +/- 3.9 beats/min. | 20
